Molecules are shown by their SMILES. Structures can show the parent of a compound that is named as a salt.

In turn, `CCC(CC)(NC(=O)c1cnn2c1NC(c1ccccc1C)CC2(C)C)c1ccc(Cl)cc1` (stereo not drawn) [Example 697, N-(1-(4-chlorophenyl)-1-ethylpropyl)-7,7-dimethyl-5-(2-methylphenyl)-4,5,6,7-tetrahydropyrazolo[1,5-a]pyrimidine-3-carboxamide] gave a melting point of 143 to 145 °C.

In turn, `CCC(NC(=O)c1cnn2c1NC(c1ccccc1)CC2C(F)(F)F)c1ccccc1F` (stereo not drawn) [Example 400, N-(1-(2-fluorophenyl)propyl)-5-phenyl-7-(trifluoromethyl)-4,5,6,7-tetrahydropyrazolo[1,5-a]pyrimidine-3-carboxamide] registered a melting point of 204 to 205 °C. Next, `CCC(CC)(NC(=O)c1cnn2c1NC(c1ncc(C)s1)CC2(C)C)c1ccc(F)cc1` (stereo not drawn) [Example 602, N-(1-ethyl-1-(4-fluorophenyl)propyl)-7,7-dimethyl-5-(5-methyl-1,3-thiazol-2-yl)-4,5,6,7-tetrahydropyrazolo[1,5-a]pyrimidine-3-carboxamide]: 163.5 to 163.6 °C. Compound `CC1(C)CC(c2ccccc2)Nc2c(C(=O)NC3(C(=O)O)CCCCC3)cnn21` (stereo not drawn) [Example 625, 1-(((7,7-dimethyl-5-phenyl-4,5,6,7-tetrahydropyrazolo[1,5-a]pyrimidin-3-yl)carbonyl)amino)cyclo-hexanecarboxylic acid] yielded a melting point of 215 to 216 °C.

The compound `CCC(C#N)NC(=O)c1cnn2c1N[C@H](c1ccccc1)C[C@@H]2C(F)(F)F` (stereo in doubt) [Example 284, N-(1-cyanopropyl)-5-phenyl-7-(trifluoromethyl)-4,5,6,7-tetrahydropyrazolo[1,5-a]pyrimidine-3-carboxamide] showed a melting point of 201 to 202 °C. Next, `CCOC(=O)COc1ccc(C(CC)(CC)NC(=O)c2cnn3c2NC(c2ccccc2)CC3(C)C)cc1` (stereo not drawn) [Example 730, ethyl (4-(1-(((7,7-dimethyl-5-phenyl-4,5,6,7-tetrahydropyrazolo[1,5-a]pyrimidin-3-yl)carbonyl)amino)-1-ethylpropyl)phenoxy)acetate]: 178 to 179 °C; `CCC(CC)(NC(=O)c1cnn2c1NC(c1ccc(OC)cc1)CC2(C)C)c1ccc(C)cc1` (stereo not drawn) (as salt: HCl) [Example 960, N-[1-ethyl-1-(4-methylphenyl)propyl]-5-(4-methoxyphenyl)-7,7-dimethyl-4,5,6,7-tetrahydropyrazolo[1,5-a]pyrimidine-3-carboxamide]: 188 to 189 °C; `COc1ccccc1C1CC(C)(C)n2nc(C)c(C(=O)O)c2N1` (stereo not drawn) [Example 944, 5-(2-methoxyphenyl)-2,7,7-trimethyl-4,5,6,7-tetrahydropyrazolo[1,5-a]pyrimidine-3-carboxylic acid]: 198 to 199 °C. Compound `CC1(C)C[C@H](c2ccccc2)Nc2c(C(=O)NC34CC5CC(CC(C5)C3)C4)cnn21` [Example 1030, (5R)-N-1-adamantyl-7,7-dimethyl-5-phenyl-4,5,6,7-tetrahydropyrazolo[1,5-a]pyrimidine-3-carboxamide] yielded a melting point of 226 to 227 °C. Next, `CCC(CC)(NC(=O)c1cnn2c1NC(c1ccccc1)CC2(C)C)c1ccc(SC)cc1` (stereo not drawn) [Example 832, N-(1-ethyl-1-(4-(methylthio)phenyl)propyl)-7,7-dimethyl-5-phenyl-4,5,6,7-tetrahydropyrazolo[1,5-a]pyrimidine-3-carboxamide]: 177 to 178 °C; `CCC(CC)(CC)NC(=O)c1cnn2c1NC(c1ccccc1)CC2(C)C` (stereo not drawn) [Example 616, N-(1,1-diethylpropyl)-7,7-dimethyl-5-phenyl-4,5,6,7-tetrahydropyrazolo[1,5-a]pyrimidine-3-carboxamide]: 93 to 94 °C. Compound `CCC(CC)(NC(=O)c1c(C)nn2c1N[C@@H](c1ccccc1)CC2(C)C)c1ccccc1F` (as salt: HCl) [Example 1063, (5R)-N-(1-ethyl-1-(2-fluorophenyl)propyl)-2,7,7-trimethyl-5-phenyl-4,5,6,7-tetrahydropyrazolo[1,5-a]pyrimidine-3-carboxamide] gave a melting point of 180 to 182 °C. To `CC(C)(NC(=O)c1cnn2c1NC(c1ccccc1)CC2(C)C)c1ccc(Cl)cc1` (stereo not drawn) (as salt: HCl) [Example 791, N-(1-(4-chlorophenyl)-1-methylethyl)-7,7-dimethyl-5-phenyl-4,5,6,7-tetrahydropyrazolo[1,5-a]pyrimidine-3-carboxamide] belongs 207 to 208 °C; to `CCC(CC)(NC(=O)c1cnn2c1N[C@@H](c1ccccc1)CC2(C)C)c1ccc(CO)cc1` (as salt: HCl) [Example 1077, (5R)-N-(1-ethyl-1-(4-(hydroxymethyl)phenyl)propyl)-7,7-dimethyl-5-phenyl-4,5,6,7-tetrahydropyrazolo[1,5-a]pyrimidine-3-carboxamide], 159 to 160 °C; to `CCC(CC)(NC(=O)c1cnn2c1NC(c1ccccc1)CC2(C)C)c1ccc(Cl)nc1` (stereo not drawn) [Example 573, N-(1-(6-chloro-3-pyridinyl)-1-ethylpropyl)-7,7-dimethyl-5-phenyl-4,5,6,7-tetrahydropyrazolo[1,5-a]pyrimidine-3-carboxamide], 223 to 224 °C. To `Cc1nn2c(c1C(=O)O)NC(c1ccccc1)CC2(C)C` (single isomer, unassigned; (+)) [Example 1020, (+)-2,7,7-trimethyl-5-phenyl-4,5,6,7-tetrahydropyrazolo[1,5-a]pyrimidine-3-carboxylic acid] belongs 190 to 192 °C; to `CCC(CC)(NC(=O)c1c(C)nn2c1NC(c1cccs1)CC2(C)C)c1ccc(C)cc1` (stereo not drawn) (as salt: HCl) [Example 956, N-(1-ethyl-1-(4-methylphenyl)propyl)-2,7,7-trimethyl-5-(2-thienyl)-4,5,6,7-tetrahydropyrazolo[1,5-a]pyrimidine-3-carboxamide], 149 to 150 °C. For the compound `CCCC(CC)(CC)NC(=O)c1cnn2c1NC(c1ccccc1)CC2(C)C` (stereo not drawn) [Example 646, N-(1,1-diethylbutyl)-7,7-dimethyl-5-phenyl-4,5,6,7-tetrahydropyrazolo[1,5-a]pyrimidine-3-carboxamide], the melting point was in the range of 76 to 77 °C.

In turn, `CCC(CC)(NC(=O)c1c(C)nn2c1NC(c1ccccc1)CC2(C)C)c1ccc(Br)cc1` (stereo not drawn) (as salt: HCl) [Example 738, N-(1-(4-bromophenyl)-1-ethylpropyl)-2,7,7-trimethyl-5-phenyl-4,5,6,7-tetrahydropyrazolo[1,5-a]pyrimidine-3-carboxamide] showed a melting point of 185 to 187 °C. To `CCc1nn2c(c1C(=O)NC(CC)(CC)c1ccc(Cl)cc1)NC(c1ccccc1)CC2(C)C` (stereo not drawn) [Example 758, N-(1-(4-chlorophenyl)-1-ethylpropyl)-2-ethyl-7,7-dimethyl-5-phenyl-4,5,6,7-tetrahydropyrazolo[1,5-a]pyrimidine-3-carboxamide] belongs 183 to 184 °C; to `CCC(CC)(NC(=O)c1cnn2c1NC(c1ccccc1)CC21CCCCC1)c1ccc(C(F)(F)F)cc1` (stereo not drawn) [Example 200, N-(1-ethyl-1-(4-(trifluoromethyl)phenyl)propyl)-5′-phenyl-5′,6′-dihydro-4′H-spiro[cyclohexane-1,7′-pyrazolo[1,5-a]pyrimidine]-3′-carboxamide], 274 to 275 °C; to `CCC(CC)(NC(=O)c1c(C)nn2c1N[C@@H](c1ccccc1)CC2(C)C)c1ccc(C)c(Cl)c1` (as salt: HCl) [Example 1069, (5R)-N-(1-(3-chloro-4-methylphenyl)-1-ethylpropyl)-2,7,7-trimethyl-5-phenyl-4,5,6,7-tetrahydropyrazolo[1,5-a]pyrimidine-3-carboxamide], 129 to 130 °C. Regarding `CCC(CC)(NC(=O)c1cnn2c1NC(c1ccccc1)CC2(C)C)c1ccc(Br)cc1` (stereo not drawn) [Example 413, N-(1-(4-bromophenyl)-1-ethylpropyl)-7,7-dimethyl-5-phenyl-4,5,6,7-tetrahydropyrazolo[1,5-a]pyrimidine-3-carboxamide], the melting point was in the range of 129 to 130 °C. Next, `CCC1(CC)CC(c2ccccc2)Nc2c(C(=O)O)cnn21` (stereo not drawn) [Example 37, 7,7-diethyl-5-phenyl-4,5,6,7-tetrahydropyrazolo[1,5-a]pyrimidine-3-carboxylic acid]: 158 to 160 °C; `O=C(O)c1cnn2c1NC(c1cccc(Cl)c1)CC2C(F)(F)F` (stereo not drawn) [Example 33, 5-(3-chlorophenyl)-7-(trifluoromethyl)-4,5,6,7-tetrahydropyrazolo[1,5-a]pyrimidine-3-carboxylic acid]: 194 to 195 °C; `CCC1(CC)C[C@H](OCc2ccccc2)CN1C(=O)c1cnn2c1N[C@H](c1ccccc1)CC2(C)C` [Example 1109, (5S)-3-(((4S)-4-(benzyloxy)-2,2-diethy-1-pyrrolidinyl)carbonyl)-7,7-dimethyl-5-phenyl-4,5,6,7-tetrahydropyrazolo[1,5-a]pyrimidine]: 116 to 118 °C. Next, `CC(C)(Cc1ccc2ccccc2c1)NC(=O)c1cnn2c1NC(c1ccccc1)CC2C(F)(F)F` (stereo not drawn) [Example 272, N-(1,1-dimethyl-2-(2-naphthyl)ethyl)-5-phenyl-7-(trifluoromethyl)-4,5,6,7-tetrahydropyrazolo[1,5-a]pyrimidine-3-carboxamide]: 187 to 188 °C.

Turning to `CCOC(=O)c1cnn2c1NC(c1ccc(OC)cc1)CC2C(F)(F)F` (stereo not drawn) [Example 3, ethyl 5-(4-methoxyphenyl)-7-(trifluoromethyl)-4,5,6,7-tetrahydropyrazolo[1,5-a]pyrimidine-3-carboxylate], the melting point fell in the range of 105 to 109 °C.

In turn, `CC(C)(NC(=O)c1cnn2c1NC(c1ccccc1)CC2C(F)(F)F)c1cccc2ccccc12` (stereo not drawn) [Example 368, N-(1-methyl-1-(1-naphthyl)ethyl)-5-phenyl-7-(trifluoromethyl)-4,5,6,7-tetrahydropyrazolo[1,5-a]pyrimidine-3-carboxamide] yielded a melting point of 221 to 222 °C. To `CCC(CC)(NC(=O)c1cnn2c1NC(c1ccccc1)CC2(C)C)c1ccc(OC(C)=O)cc1` (stereo not drawn) [Example 728, 4-(1-(((7,7-dimethyl-5-phenyl-4,5,6,7-tetrahydropyrazolo[1,5-a]pyrimidin-3-yl)carbonyl)amino)-1-ethylpropyl)phenyl acetate] belongs 171 to 172 °C.

(Values after patent US9447100B2, “Substituted pyrazolo[1,5-A] pyrimidines as calcium receptor modulating agents” (Takeda Pharmaceutical Company Limited, priority 2002, dated 2016).)
